Patent US20010055590A1, “Method for enhancing myoblast migration and invasion in the context of gene therapy” (priority 1999, published 2001)

B1: recombinant human platelet-derived growth factor-BB (protein, UniProt P01127 82-190, looked up)
Platelet-derived growth …: SLGSLTIAEPAMIAECKTRTEVFEISRRLIDRTNANFLVWPPCVEVQRCSGCCNNRNVQCRPTQVQLRPVQVRKIEIVRKKPIFKKATVTLEDHLACKCETVAAARPVT
modifications: Platelet-derived growth factor subunit B
notes: recombinant human platelet-derived growth factor-BB

Assays:
Assay type in all cases: cell-based
mouse myoblasts = assay: In vitro mouse myoblast migration assay (gelatin-coated membrane); settings: 12 hours; for stimulation of mouse myoblast migration over the DMEM control: 25 ng/ml bFGF, 50 μg/ml fibronectin, 10 ng/ml HGF, 2 ng/ml TGF-β1; for effect on mouse myoblast migration: stimulant in bottom chamber
Method: Mouse myoblasts were previously isolated from hind limb muscles of 4-6 week old severe combined immunodeficient (SCID) mice and clonally purified from contaminating fibroblasts (Yao et al. “Primary myoblast-mediated gene: transfer: persistent expression of human factor IX in mice” Gene Therapy 1:99-107, 1994). Myoblasts (approximately 1×10^6 cells) were plated on 6 cm tissue culture plates coated with 0.5% gelatin (Sigma, St. Louis, Mo.) and grown in growth medium consisting of Dulbecco's Modified Eagle Medium (DMEM) (Gibco BRL, Gaithersburg Md.) supplemented with 20% fetal bovine serum (FBS; Gibco) and 0.5% chick embryo extract (CEE; Gibco). All animal studies were carried out following the institutional guidelines for ethical animal use. Human myoblasts were isolated using trypsin digestion from abdominal wall or chest wall muscle biopsies, and surgery. Written consent was obtained from all patients prior to biopsy isolation as approved by the University Hospital's Institutional Regulation Board on the use of human subjects. Cells were preplated on uncoated plates for 1 hour to separate muscle fibroblasts. […] All experiments were done with myoblasts of passage 7 or lower. Myoblast migration and invasion were examined using a commercially available in vitro cell migration and invasion assay kit (Biocoat, Becton Dickinson, Franklin Lakes, N.J.) as described by Albini et al. (A rapid in vitro assay for quantitating the invasive potential of tumor cells Cancer Res 47:3239-3245, 1987). Myoblasts were grown to approximately 70% confluence, rinsed three times in serum-free DMEM, followed by incubation for 3 hours in 0.2% bovine serum albumin (BSA) in DMEM to eliminate the effects of serum. Cells were then trypsinized and collected by centrifugation. Cells were resuspended in serum-free DMEM at a density of 1×10^5 cells/ml, and 0.5 ml aliquots of cell suspension were added to the top chamber. […] Fibronectin subfragments of 45 KDa (Sigma), 120 kDa (Gibco), 63 kDa (Retronectin, Takara) and 70 KDa (Sigma) were used alone or in combination. […] For migration studies, the upper chamber membrane was coated with 0.1% gelatin and cells were allowed to migrate for 8-12 hours, while for invasion studies, the upper membrane was coated with 5 μl of Matrigel® diluted to 5 mg/ml in sterile phosphate buffered saline (PBS) and cells were allowed to invade for 24 hours. The top side of the insert membrane was scrubbed free of cells using a cotton swab and the bottom side was stained using the Leukostat-I system (Fisher Diagnostics, Pittsburgh, Pa.). The number of cells per field was counted in 10 randomly selected fields and averaged for each condition. To evaluate the effects of inactivation or activation of MMPs, aliquots (0.05 units in 50 μl PBS) of purified human plasmin (Sigma) or 50 mM N-acetyl cysteine (NAC; Sigma) were added with the cells to the top chamber of the migration assay and growth factor was added to the bottom. […] Myoblasts (5×10^4 cells/well) were stimulated with various growth factors and fibronectin, and their ability to migrate or invade through a Matrigel® barrier (panel a, mouse myoblast migration at 12 hours; panel b, mouse myoblast invasion at 24 hours). […] Bars represent mean ±SEM from a minimum of 3 separate experiments. […] Further studies were done to elucidate the role of MMPs in cytokine-mediated mouse myoblast migration.

MMP-2 = assay: Gelatin zymography of mouse myoblast culture medium, MMP-2; settings: mouse myoblasts treated 24 hours; densitometry normalized to DMEM control
Method: Briefly, myoblasts were grown in 6 cm tissue culture plates to approximately 70% confluence, then rinsed three times with serumfree DMEM and incubated for 3 hours in DMEM containing 0.2% BSA to eliminate the effects of serum. Growth factors were added and cells were incubated for 24 hours. Culture medium was then collected, centrifuged to pellet detached cells, and concentrated ten-to twenty-fold using the Centricon-10 (Amicon, Beverly, Mass.) system. The protein concentration of the supernatants was determined using the Bio-Rad protein microassay system with BSA used as the standard. Samples were stored at −70° C. until use. For gelatin zymography, aliquots (10 μg as the total protein per sample) were electrophoresed at constant voltage on a 10% polyacrylamide gel containing 2 mg/ml gelatin. The gel was rinsed three times for 15 min in 2.5% Triton-X 100 to remove SDS and renature the proteins, then incubated in MMP activation buffer (0.05 M Tris-HCl, pH 7.5 with 5 mM CaCl2) for 24 hours at 37° C. with constant shaking. Gels were stained overnight in 0.5% Coomassie blue R-250, and destained for 1 hour in 40% methanol: 10% acetic acid. Proteinase activity was quantified by densitometric scanning of bands using a Bio-Rad Gel Doc 1000 video camera imaging system (Bio Rad, Hercules, Calif.). […] Values are arbitrary densitometric units, which are normalized to DMEM control for each experiment and shown as values ±SEM representing a minimum of 3 experiments per condition. […] Mouse myoblasts were treated for 24 hours with either DMEM alone, fibronectin (50 μg/ml), or individual fragments (37.5 μg/ml) of 45, 120, 63 (Retronectin), 75 kDa and their combinations, 45 kDa/120 kDa and 120 kDa/63 kDa.

human myoblasts = assay: In vitro human myoblast migration assay; settings: 12 hour time point
Method: Mouse myoblasts were previously isolated from hind limb muscles of 4-6 week old severe combined immunodeficient (SCID) mice and clonally purified from contaminating fibroblasts (Yao et al. “Primary myoblast-mediated gene: transfer: persistent expression of human factor IX in mice” Gene Therapy 1:99-107, 1994). Myoblasts (approximately 1×10^6 cells) were plated on 6 cm tissue culture plates coated with 0.5% gelatin (Sigma, St. Louis, Mo.) and grown in growth medium consisting of Dulbecco's Modified Eagle Medium (DMEM) (Gibco BRL, Gaithersburg Md.) supplemented with 20% fetal bovine serum (FBS; Gibco) and 0.5% chick embryo extract (CEE; Gibco). All animal studies were carried out following the institutional guidelines for ethical animal use. Human myoblasts were isolated using trypsin digestion from abdominal wall or chest wall muscle biopsies, and surgery. Written consent was obtained from all patients prior to biopsy isolation as approved by the University Hospital's Institutional Regulation Board on the use of human subjects. Cells were preplated on uncoated plates for 1 hour to separate muscle fibroblasts. Approximately 95% of the cells were desmin-positive following immunohistochemical staining of representative culture samples, and were capable of differentiation into myotubes, indicating high purity of the myoblast preparation. All experiments were done with myoblasts of passage 7 or lower. Myoblast migration and invasion were examined using a commercially available in vitro cell migration and invasion assay kit (Biocoat, Becton Dickinson, Franklin Lakes, N.J.) as described by Albini et al. (A rapid in vitro assay for quantitating the invasive potential of tumor cells Cancer Res 47:3239-3245, 1987). Myoblasts were grown to approximately 70% confluence, rinsed three times in serum-free DMEM, followed by incubation for 3 hours in 0.2% bovine serum albumin (BSA) in DMEM to eliminate the effects of serum. Cells were then trypsinized and collected by centrifugation. Cells were resuspended in serum-free DMEM at a density of 1×10^5 cells/ml, and 0.5 ml aliquots of cell suspension were added to the top chamber. […] Fibronectin subfragments of 45 KDa (Sigma), 120 kDa (Gibco), 63 kDa (Retronectin, Takara) and 70 KDa (Sigma) were used alone or in combination. The growth factor concentrations used were those which could produce maximal effects as examined in the present studies by extending from values reported by Bischoff (“Chemotaxis of skeletal muscle satellite cells” Devel. Dynamics 208:505-515, 1997). For migration studies, the upper chamber membrane was coated with 0.1% gelatin and cells were allowed to migrate for 8-12 hours, while for invasion studies, the upper membrane was coated with 5 μl of Matrigel® diluted to 5 mg/ml in sterile phosphate buffered saline (PBS) and cells were allowed to invade for 24 hours. The top side of the insert membrane was scrubbed free of cells using a cotton swab and the bottom side was stained using the Leukostat-I system (Fisher Diagnostics, Pittsburgh, Pa.). The number of cells per field was counted in 10 randomly selected fields and averaged for each condition. To evaluate the effects of inactivation or activation of MMPs, aliquots (0.05 units in 50 μl PBS) of purified human plasmin (Sigma) or 50 mM N-acetyl cysteine (NAC; Sigma) were added with the cells to the top chamber of the migration assay and growth factor was added to the bottom. […] The effects of growth factors on human myoblast migration in vitro (12 hour time point) were somewhat different from those observed with mouse myoblasts. […] The greatly elevated level of migration of human myoblasts was due in part to the extremely low migration in the BSA control (basal level) of human cells compared to mouse cells. The largest effects on human myoblast migration were produced by fibronectin (100-fold), PDGF (about 62-fold), TGF-β (about 54-fold) and HGF (46-fold) over the control level, while bFGF produced only a 37-fold stimulation (FIG. 7a). […]

Row | Molecule | stimulation of mouse myoblast migration over the DMEM control (mouse myoblasts) [fold] | effect on mouse myoblast migration (mouse myoblasts) | increase of total MMP-2 expression (MMP-2) [%] | stimulation of human myoblast migration over the BSA control level (human myoblasts)
1 | purified human transforrning growth factor-β1 [TGF-β1] | 5 | stimulated migration of mouse myoblasts to various degrees | 36 | about 54 fold
2 | recombinant hepatocyte growth factor [HGF] | 8 | stimulated migration of mouse myoblasts to various degrees | – | 46 fold
3 | recombinant human insulin-like growth factor-I [IGF-I] | – | stimulated migration of mouse myoblasts to various degrees | 69 | –
4 | B1 | – | stimulated migration of mouse myoblasts to various degrees | 35 | about 62 fold
